Test results: publication PMC10857328, “Utilization of Biopolymer-Based Lutein Emulsion as an Effective Delivery System to Improve Lutein Bioavailability in Neonatal Rats” (Nutrients, 2024)
Like-named read-outs stand apart in the source and are kept apart here.

Experiments:
[1] = encapsulation technique Polymer, Mice, cited from earlier work
[2] = Acute dosing study: serum lutein kinetics, pharmacokinetic parameters and bioavailability; type: in vivo, neonatal Sprague-Dawley rats; conditions: 10 mg/kg body weight of lutein; for Serum lutein concentration: P10 pups
Description: To determine the bioavailability of lutein in neonatal Sprague-Dawley rats, an acute dosing study was conducted. The procedure was approved by the Institutional Animal Care and Use Committee of the University of Alabama (Number: 21-08-4864, 23 September 2021). On postnatal day 10 (P10), neonatal rats were randomly selected from litters and received a single dose of either free lutein (i.e., lutein ester dissolved in olive oil) or lutein emulsion, both containing 10 mg/kg body weight of lutein. The dose was administered to the pup’s mouth via a pipette. The concentration of lutein ester in the oil phase was 0.004 g/mL. The lutein dosage was selected based on our pilot study and previous studies. It is higher than the dosage used in human newborns but is considered acceptable and safe to be used in pharmacokinetic studies in rodent models. At 0.5 h, 1 h, 2 h, 4 h, 6 h, 12 h, and 24 h after dosing, pups (n = 3/time point/group) were euthanized, and blood, liver, spleen, brain, and eye were collected. Serum was obtained by centrifuging blood samples and tissues were stored at −80 °C until time of analysis. A group of rat pups (n = 3) not receiving treatments were used to measure the baseline lutein concentrations. Throughout the study, maternal rats consumed a purified diet with no lutein (D19120501, Research Diets Inc, New Brunswick, NJ, USA) (Table 1).
Serum and tissue lutein concentration was determined using an ultra-performance liquid chromatography (UPLC) system (Waters, Milford, MA, USA) equipped with a photo-diode array detector (PDA)/MS/MS, according to our well-established methods with slight modification. As for the serum, 100 μL of the sample was incubated with 2 mL of 100% ethanol at room temperature for an hour for lipid extraction. For the tissues, ~0.1 g of the sample was weighed, homogenized, and incubated with 2 mL of 100% ethanol at room temperature for an hour. An amount of 1 mL of 5% (w/v) potassium hydroxide was added to the sample and incubated in a water bath at 60 °C for 45 min for saponification. Upon saponification, samples were allowed to cool for about 15 min, and then an addition of 4 mL of hexane containing 0.1% butylated hydroxytoluene (w/v) and 2 mL of deionized water was added. The mixture was vortexed for 20 s and centrifuged at 1600 rpm at 25 °C for 15 min. The upper layer was collected following centrifugation and dried under nitrogen at 37 °C. The dried sample was then rinsed twice with hexane, dried, and reconstituted with 100 µL of acetonitrile-methanol. The reconstituted sample was centrifuged for 2 min to remove any possible precipitation. For UPLC analysis, 10 µL of the sample was injected into the Waters Acquity UPLC HSS T3 column. Solvent A was acetonitrile: methanol (50:50, v/v), and solvent B was 100% isopropanol. The mobile phase was made up of solvent A and solvent B in a volume ratio of 95:5 (v/v). The flow rate was set as 0.5 mL/min, and the column temperature was maintained at 35 °C. The detection wavelength was set at 446 nm. Retinyl acetate (Sigma-Aldrich, St. Louis, MO, USA) was used as the internal standard.
Bioavailability is defined as the rate and range of the active compound to the systemic circulation through a single oral administration. It can be evaluated by pharmacokinetic parameters derived from the compound kinetic curve (serum concentration vs. time). In the acute dosing study, pharmacokinetic parameters, including maximum lutein concentration (Cmax), time to reach Cmax (Tmax), and area under the time-concentration curve (AUC0–24) were determined. Cmax and Tmax were read directly from the serum lutein kinetic curve. The area under the time-concentration curve (AUC0–24) was calculated by trapezoid rule with linear interpolation using GraphPad Prism 8.0 (San Diego, CA, USA). […]

Serum lutein concentration ([2]; 0.5 h after single oral dose): 0.00 ± 0.00 nmol/L
Serum lutein concentration ([2]; 6 h after single oral dose): 132.91 ± 64.96 nmol/L
Serum lutein concentration ([2]; 24 h after single oral dose): 43.16 ± 8.53 nmol/L
Tmax, time to reach Cmax (serum) ([2]; single oral dose): 4 h
Cmax ([2]; single oral dose, read-out: Cmax, maximum serum lutein concentration): 145 ± 49 nM
AUC0–24 ([2]; single oral dose, serum): 1987 ± 247.90 nmol/L∗h
Substance: Lutein ester [Free Lutein]
Tmax (serum) ([1]; ref Arunkumar et al. (2015) [42]): 4 h
Tmax (serum) ([1]; ref Ranganathan et al. (2019) [57]): 4 h
